Laboratory results: the supplement of paper PMC6045584

Columns and labels:
Assay in all cases: area under dose-response curve of surviving fraction (unscaled, Aref=0) (surviving fraction x log10(nM)); higher = more resistant
Conditions in all cases: exposure time: 5 days; dose range 0.5-1000 nM
CABOZANTINIB = compound: COc1cc2nccc(Oc3ccc(NC(=O)C4(C(=O)Nc5ccc(F)cc5)CC4)cc3)c2cc1OC [CABOZANTINIB]
Method in brief: (§1)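 Inhibitor was applied to tumour cell lines at eight concentrations (0.5 to 1000 nM) for five days in 384-well plates. Luminescence from CellTiter-Glo, scaled to DMSO-only wells, gave surviving fractions in three screens per line, and these were fitted by 3-parameter logistic regression with the drc R package. The area under the curve is an unscaled activity area. Aref was 0, and dose was on a log10 scale.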

[1] = compound: C[C@H](CN(C)C)Oc1nc(Nc2cc3cccc(Cl)c3cn2)cnc1C#N
Method in brief: as §1

MK-1775 = compound: C=CCn1c(=O)c2cnc(Nc3ccc(N4CCN(C)CC4)cc3)nc2n1-c1cccc(C(C)(C)O)n1 [MK-1775]
Method in brief: as §1

[2] = compound: CCc1cc(Nc2nccc(-c3c(-c4ccc(OC)c(C(=O)Nc5c(F)cccc5F)c4)nc4ccccn34)n2)c(OC)cc1N1CCC(N2CCN(S(C)(=O)=O)CC2)CC1
Method in brief: as §1

LENVATINIB = compound: COc1cc2nccc(Oc3ccc(NC(=O)NC4CC4)c(Cl)c3)c2cc1C(N)=O [LENVATINIB]
Method in brief: as §1

[3] = compound: COc1ccc(-c2cc3c(C)nc(N)nc3n([C@H]3CC[C@H](OCCO)CC3)c2=O)cn1
Method in brief: as §1

[4] = compound: C[C@@H]1CN(CC(=O)Nc2ccc3c(c2)Cc2cccc(-c4cc(=O)cc(N5CCOCC5)o4)c2S3)C[C@H](C)O1
Method in brief: as §1

BLEOMYCIN = compound: Cc1c(N)nc([C@H](CC(N)=O)NC[C@H](N)C(N)=O)nc1C(=O)N[C@H](C(=O)N[C@H](C)[C@@H](O)[C@H](C)C(=O)N[C@H](C(=O)NCCc1nc(-c2nc(C(=O)NCCC[S+](C)C)cs2)cs1)[C@@H](C)O)[C@@H](OC1OC(CO)C(O)C(O)C1OC1OC(CO)C(O)C(OC(N)=O)C1O)c1cnc[nH]1 [BLEOMYCIN]
Method in brief: as §1

BEZ-235 = compound: Cn1c(=O)n(-c2ccc(C(C)(C)C#N)cc2)c2c3cc(-c4cnc5ccccc5c4)ccc3ncc21 [BEZ-235]
Method in brief: as §1

VORINOSTAT = compound: O=C(CCCCCCC(=O)Nc1ccccc1)NO [VORINOSTAT]
Method in brief: as §1

Test System | area under dose-response curve (CABOZANTINIB) | area under dose-response curve [1] | area under dose-response curve (MK-1775) | area under dose-response curve [2] | area under dose-response curve (LENVATINIB) | area under dose-response curve [3] | area under dose-response curve [4] | area under dose-response curve (BLEOMYCIN) | area under dose-response curve (BEZ-235) | area under dose-response curve (VORINOSTAT)
CCK81 LARGE INTESTINE | 2.42 | 2.09 | – | – | – | – | – | – | – | –
G292 BONE | 3.03 | 3.2 | 2.71 | 3.33 | 2.62 | 1.89 | 3.2 | 2.07 | 2.18 | 3.05
HCC38 BREAST | 4.07 | 2.59 | 2.33 | – | 3.98 | 2.96 | 2.58 | 2.44 | 2.59 | 4
HCC70 BREAST | 3.5 | 3.06 | 2.24 | 3.48 | 3.79 | 2.19 | 3.65 | 2.77 | 2.57 | 3.13
HMLE3 BREAST | 3.06 | – | 2.87 | 3.22 | 3.05 | 2.08 | 3.21 | 3 | 2.13 | –
HMT3552 BREAST | – | 2.82 | – | – | – | – | – | – | – | –
HS578T BREAST | 3.18 | 2.54 | 1.96 | 2.93 | – | 1.97 | 2.86 | 2.21 | 2.13 | 2.86
